Reference: patent US8865448B2, “Aspergillus containing beta-glucosidase, beta-glucosidases and nucleic acids encoding the same” (Cleanvantage LLC, priority 2010, dated 2014)
pIC50: −log10 of the molar value.

Legend:
[1] = target: T1, Aspergillus saccharolyticus CBS 127449 beta-glucosidase BGL1, his-tagged, expressed in T. reesei, SEQ ID NO: 3 (without signal peptide SEQ ID NO: 4) (Aspergillus saccharolyticus, UniProt G0X2F9); assay: Michaelis-Menten kinetics with cellobiose, purified BGL1; format: biochemical; conditions: cellobiose as substrate, 50° C., pH 4.8, Hanes plot
T1 construct: mature form lacks signal peptide 1-19
T1 sequence (G0X2F9 20-860): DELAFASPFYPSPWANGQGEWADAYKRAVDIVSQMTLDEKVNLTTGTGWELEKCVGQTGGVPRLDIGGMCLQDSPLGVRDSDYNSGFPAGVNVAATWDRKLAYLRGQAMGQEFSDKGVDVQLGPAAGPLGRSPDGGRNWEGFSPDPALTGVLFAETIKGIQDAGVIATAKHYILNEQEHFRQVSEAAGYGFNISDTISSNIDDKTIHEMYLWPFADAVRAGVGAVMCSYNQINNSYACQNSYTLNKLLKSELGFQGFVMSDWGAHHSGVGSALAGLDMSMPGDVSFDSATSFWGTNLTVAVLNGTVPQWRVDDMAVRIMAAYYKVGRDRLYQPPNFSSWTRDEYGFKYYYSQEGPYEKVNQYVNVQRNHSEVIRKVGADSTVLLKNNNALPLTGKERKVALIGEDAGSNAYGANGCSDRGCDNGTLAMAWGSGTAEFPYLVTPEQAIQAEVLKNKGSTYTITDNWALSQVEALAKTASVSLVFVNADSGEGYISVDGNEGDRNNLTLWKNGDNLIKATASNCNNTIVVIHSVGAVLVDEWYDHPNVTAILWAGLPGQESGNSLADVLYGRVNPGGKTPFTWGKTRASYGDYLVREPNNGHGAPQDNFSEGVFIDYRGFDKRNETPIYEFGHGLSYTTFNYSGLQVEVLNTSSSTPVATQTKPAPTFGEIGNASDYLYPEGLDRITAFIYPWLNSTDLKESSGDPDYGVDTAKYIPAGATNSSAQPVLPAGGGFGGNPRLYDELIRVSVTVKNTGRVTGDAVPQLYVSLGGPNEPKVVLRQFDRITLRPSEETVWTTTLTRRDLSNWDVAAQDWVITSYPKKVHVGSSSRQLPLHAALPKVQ
Method: In this work specific activity (U/mg) is defined as units per amount of total protein. […] The assay using 5 mM pNPG in NaCltrate buffer pH 4.8 was performed as previously described; enzyme samples were assayed at different concentrations in triple determination to ensure substrate saturation in the assay. […] Samples were assayed at different concentrations in triple determination to ensure substrate saturation in the assay.

[2] = test system: A. niger BKMF-1305 beta-glucosidase; conditions: cited from earlier work
[3] = test system: Novozym 188 beta-glucosidase (Aspergillus niger), commercial preparation; assay: Michaelis-Menten kinetics with cellobiose, Novozym 188; format: biochemical; conditions: cellobiose as substrate, 50° C.
Method: (§1) In this work specific activity (U/mg) is defined as units per amount of total protein. […] The assay using 5 mM pNPG in NaCltrate buffer pH 4.8 was performed as previously described; enzyme samples were assayed at different concentrations in triple determination to ensure substrate saturation in the assay. […] The glucose concentration was measured at Dionex ICS3000 using gradient elution: 0-20% eluent B (0.5M NaAcetate in 100 mM NaOH) in 13 min followed by 2 min washing with 50% eluent B and 5 min re-equilibrating with 100% eluent A (100 mM NaOH). Samples were assayed at different concentrations in triple determination to ensure substrate saturation in the assay.
(§2) Triple determinations were performed. A substrate saturation curve was prepared by plotting substrate concentration [S] vs reaction rate, v. The Michealis Menten constants Km and Vmax were determined from Hanes-Wolf plots where substrate concentration [S] is plotted against substrate concentration over reaction rate [S]/v, and the linear relationship of the data gives a slope of 1/Vmax, a y-intercept of Km/Vmax, and an x-intercept of −Km.
(§3) Enzyme kinetics are preferably carried out on pure enzyme preparations, but are in this study used for the comparison of the beta-glucosidases of the crude enzyme extract of strain AP/Aspergillus saccharolyticus and the commercial enzyme preparation Novozym 188 and Cellic CTec. […]

[4] = test system: A. niger NIAB280 beta-glucosidase; conditions: hydrolysis of cellobiose, 50° C., pH 5.0; cited from earlier work
[5] = test system: A. niger beta-glucosidases; conditions: cellobiose; general literature search; cited from earlier work
[6] = test system: A. carbonarius KLU-93 beta-glucosidase; conditions: cited from earlier work
[7] = test system: A. niger CCRC31494 beta-glucosidase; conditions: hydrolysis of cellobiose, 40° C., pH 4.0; cited from earlier work
[8] = test system: A. japonicus beta-glucosidase; conditions: cellobiose; cited from earlier work
[9] = test system: A. phoenicis QM329 beta-glucosidase; conditions: cited from earlier work
[10] = test system: Cellic CTec beta-glucosidases, commercial preparation; assay: Michaelis-Menten kinetics with cellobiose, Cellic CTec; format: biochemical; conditions: cellobiose as substrate, 50° C.
Method: as §1, §2, §3

[11] = test system: Aspergillus saccharolyticus (strain AP, CBS 127449) beta-glucosidases, crude enzyme extract; assay: Michaelis-Menten kinetics with cellobiose, crude solid state fermentation extract of strain AP; format: biochemical; conditions: cellobiose as substrate, 50° C.
Method: The fungal strain AP/Aspergillus saccharolyticus was grown on potato dextrose agar (Sigma) for sporulation. Spores were harvested after 7 days of growth by adding sterile water to the plate and scrape on the surface of the culture. The heavy spore suspension was filtered through Myra cloth. Two ml of the spore solution was inoculated into 200 ml seed medium (2.0 g/l wheat bran, 5 g/l corn steep powder, 0.25 g/l yeast extract, 0.75 g/l peptone, 1.4 g/l (NH4)2SO4, 2.0 g/l KH2PO4, 0.4 g/l CaCl2 2H2O, 0.3 g/l MgSO4H2O, 5.0 mg/l FeSO4, 1.6 mg/l MnSO4 7H2O, 1.4 mg/l ZnSO4 7H2O, 2.0 CoCl2 6H2O) in an 500 ml Erlenmeyer flask, and incubated at 30° C. for 2 days, shaking at 160 rpm. […] The samples were incubated at 30° C. without shaking. After 7 days incubation, liquid was extracted from the medium by pressing the medium by hand using gloves. The extract was centrifuged at 10000 g, and the supernatant filtered through Whatman filter paper. In this work specific activity (U/mg) is defined as units per amount of total protein. […] Samples were assayed at different concentrations in triple determination to ensure substrate saturation in the assay. […] Triple determinations were performed. A substrate saturation curve was prepared by plotting substrate concentration [S] vs reaction rate, v. […]

[12] = test system: Novozym 188 beta-glucosidase (Aspergillus niger), commercial preparation; assay: Glucose tolerance / product inhibition, Novozym 188; format: biochemical
Method: (§4) For testing glucose tolerance, 5 mM pNPG in NaCltrate buffer pH 4.8 was used as substrate with different glucose amounts added, ranging final glucose concentrations of 0-280 mM. The remaining activity (glucose tolerance) was measured spectrophotometrically by release of pNP at 50° C. reaction conditions, as described earlier. Triple determinations were performed. […] Triple determinations were performed.

[13] = test system: Cellic CTec beta-glucosidases, commercial preparation; assay: Glucose tolerance / product inhibition, Cellic CTec; format: biochemical
Method: as §4

[14] = test system: Aspergillus saccharolyticus (strain AP, CBS 127449) beta-glucosidases, crude enzyme extract; assay: Glucose tolerance / product inhibition, crude extract of strain AP; format: biochemical
Method: The fungal strain AP/Aspergillus saccharolyticus was grown on potato dextrose agar (Sigma) for sporulation. Spores were harvested after 7 days of growth by adding sterile water to the plate and scrape on the surface of the culture. The heavy spore suspension was filtered through Myra cloth. Two ml of the spore solution was inoculated into 200 ml seed medium (2.0 g/l wheat bran, 5 g/l corn steep powder, 0.25 g/l yeast extract, 0.75 g/l peptone, 1.4 g/l (NH4)2SO4, 2.0 g/l KH2PO4, 0.4 g/l CaCl2 2H2O, 0.3 g/l MgSO4H2O, 5.0 mg/l FeSO4, 1.6 mg/l MnSO4 7H2O, 1.4 mg/l ZnSO4 7H2O, 2.0 CoCl2 6H2O) in an 500 ml Erlenmeyer flask, and incubated at 30° C. for 2 days, shaking at 160 rpm. Solid state fermentation at approximately 30% TS was carried out adding 100 ml of the cultivated seed medium to 1 l of a solid state fermentation medium comprising of 343 g wheat bran (TS of 87.4%), 9 g corn steep powder, 557 ml Czapek liquid (3 g/l NaNO3, 1 g/l K2HPO4, 0.5 g/l KCl, 0.5 g/l MgSO4 7H2O, 0.01 g/l FeSO4 7H2O) (Samson et al., 2004a). […] The samples were incubated at 30° C. without shaking. After 7 days incubation, liquid was extracted from the medium by pressing the medium by hand using gloves. The extract was centrifuged at 10000 g, and the supernatant filtered through Whatman filter paper.
[…] The remaining activity (glucose tolerance) was measured spectrophotometrically by release of pNP at 50° C. reaction conditions, as described earlier. Triple determinations were performed. […] Triple determinations were performed.

[15] = target: T1, Aspergillus saccharolyticus CBS 127449 beta-glucosidase BGL1, his-tagged, expressed in T. reesei, SEQ ID NO: 3 (without signal peptide SEQ ID NO: 4); assay: Glucose inhibition, purified BGL1; format: biochemical; conditions: pNPG as substrate (5 mM), 50° C., pH 4.8
Method: as §4
The his-tagged beta-glucosidases were purified on the ÄKTApurifier system with UNICORN software, using a HisTrap HP 5 ml […] column (GE Healthcare), run at a flow rate of 5 ml/min. The column was equilibrated with 5CV of binding buffer (20 mM sodium phosphate, 0.5M NaCl, pH 7.4), 100 ml sample was loaded onto the column, followed by washing with binding buffer till the absorbance reached the baseline. The his-tagged beta-glucosidases were eluted with 3CV elution buffer (20 mM sodium phosphate, 0.5M NaCl, 500 mM imidazole, pH 7.4) and the peak (1 CV) collected by monitoring the absorbance.
Michaelis Menten kinetics, glucose tolerance, termostability, pH optimum, and cellodextrin hydrolysis were carried out as described in EXAMPLE 1.

[16] = cellobiose, jointly for A. phoenicis, A. niger, A. carbonarius (Jager et al., 2001)
[17] = hydrolysis of cellobiose, 50° C., pH 4.0
[18] = cellobiose as substrate, product and substrate in equal concentrations
[19] = cellobiose as substrate, twice the concentration of glucose compared to cellobiose
[20] = pNPG as substrate, product concentration 12 times higher than the substrate concentration

## OC[C@H]1O[C@@H](O[C@H]2[C@H](O)[C@@H](O)C(O)O[C@@H]2CO)[C@H](O)[C@@H](O)[C@@H]1O (some centres unmarked) [cellobiose]
[1]
  Vmax: 45 U/mg
[2]; [16]
  Km: 2000 to 3000 µM
[2]; [17]
  Vmax: 38.8 U/mg
[3]; pH 4.8, Hanes-Wolf plot
  Km: 1060 µM
[3]; pH 4.8, per total protein
  Vmax: 7.5 U/mg
[4]
  Vmax: 36.5 U/mg
[5]
  Km: 1500 to 5600 µM
[6]; [16]
  Km: 2000 to 3000 µM
[6]; [17]
  Vmax: 15.4 U/mg
[7]
  Vmax: 5.27 U/mg
[8]
  Km: 1000 µM
[9]; [16]
  Km: 2000 to 3000 µM
[9]; [17]
  Vmax: 27.3 U/mg
[10]; pH 4.8, Hanes-Wolf plot
  Km: 1690 µM
[10]; pH 4.8, per total protein
  Vmax: 22.9 U/mg
[11]; pH 4.8, Hanes-Wolf plot
  Km: 1090 µM
[11]; pH 4.8, per total protein
  Vmax: 11.3 U/mg

## OC[C@H]1OC(O)[C@H](O)[C@@H](O)[C@@H]1O (some centres unmarked) [glucose]
[12]; 5 mM pNPG as substrate
  glucose concentration at half the maximum activity, relative to substrate concentration: 12 × the substrate concentration
[12]; 5 mM pNPG as substrate, 50° C., pH 4.8, calculated, read-out: glucose concentration at half the maximum activity
  pIC50: 1.22
[12]; [18]
  remaining activity with glucose: around 80%
[12]; [19]
  remaining activity with glucose: 50%
[12]; [20]
  remaining activity with glucose: below 40%
[13]; 5 mM pNPG as substrate
  glucose concentration at half the maximum activity, relative to substrate concentration: 23 × the substrate concentration
[13]; [20]
  remaining activity with glucose: approx 75%
[14]; 5 mM pNPG as substrate
  glucose concentration at half the maximum activity, relative to substrate concentration: 36 × the substrate concentration
[14]; [18]
  remaining activity with glucose: around 80%
[14]; [19]
  remaining activity with glucose: 50%
[14]; [20]
  remaining activity with glucose: > 80%
[15]
  product (glucose) concentration at reduction in activity to 50%: 30 times greater than the substrate concentration
